The values below come from patent US8821839B2, “Compositions and methods for imparting a sunless tan with a vicinal diamine” (Conopco, Inc., priority 2010, dated 2014).

A short description of this experiment: Individual Typologic Angle change on synthetic skin for 2.5% DHA plus adjuvant in citric acid/citrate buffer solution. Conditions: adjuvant at molar equivalent of 1% glycine; for ΔITA ° after 2 hours: pH about 5.5, 2 hours; for ΔITA ° after 4 hours: pH about 5.5, 4 hours. As for the experimental part:
The synthetic skin was pre-hydrated at 95% RH for 24 hours and then treated with portions of the samples at a dosage of 5 μL/cm^2. The treated synthetic skin was then stored at 35° C. and 40% RH for periods up to 24 hours. […]
Formulations in Table IV containing 2.5% DHA and the molar equivalent of 1% glycine as adjuvant in a citric acid/citrate buffer solution were prepared. The formulations were adjusted to a pH of about 5.5 to mimic the formulation pH after application to human skin.
Individual Typologic Angle results were obtained in a manner similar to the one described in Example 1.

Regarding `NCC(=O)O` [Glycine], the “ΔITA ° after 2 hours” value is 2 ± 1 ° and the “ΔITA ° after 4 hours” value was found to be 7 ± 2 °.

`NCCN` [Ethylene diamine]: the “ΔITA ° after 2 hours” value turned out to be 16 ± 2 ° and the “ΔITA ° after 4 hours” value is reported as 32 ± 3 °.

On to `CC(N)CN` (stereo not shown) [1,2-diamino propane], for which the “ΔITA ° after 2 hours” value amounted to 17 ± 2 ° and the “ΔITA ° after 4 hours” value came to 32 ± 3 °.

On to `CN(C)CCN` [N,N-dimethyl ethylene diamine], for which the “ΔITA ° after 2 hours” value turned out to be 4 ± 2 ° and the “ΔITA ° after 4 hours” value is on record as 8 ± 2 °.

As for `NCCCCN` [1,4-diamino butane], the “ΔITA ° after 2 hours” value came to 4 ± 2 ° and the “ΔITA ° after 4 hours” value is 12 ± 4 °.

With `NC1CCCCC1N` (stereo not shown) [1,2-diamino cyclohexane], the “ΔITA ° after 2 hours” value is reported as 20 ± 3 ° and the “ΔITA ° after 4 hours” value came out at 35 ± 3 °.

Consider `NCCCN` [1,3-diamino propane], for which the “ΔITA ° after 2 hours” value is reported as 6 ± 3 ° and the “ΔITA ° after 4 hours” value is 16 ± 4 °.

For the molecule `NC1C(O)OC(CO)C(O)C1N` (stereo not shown) [3,4-diamino-6-hydroxymethyl-tetrahydro-pyrane 2,5-diol], the “ΔITA ° after 2 hours” value was determined as 15 ± 3 ° and the “ΔITA ° after 4 hours” value was determined as 23 ± 2 °.
